According to patent US8278083B2 (priority 2004, dated 2012):
Read-outs that look alike come from different tables or passages of the source.

Assays:
[1] = system: SIV Mne; type: cell-based
[2] = system: HIV-1(MN); type: cell-based; details: INA-treated HIV-1(MN); for Avg. Capsid Protein conc. Day 7 / Avg. Capsid Protein conc. Day 14 / Avg. Capsid Protein conc. Day 21: AA2 clone 1 cells; for Culture Result Neg / Culture Result Pos: of quadruplicate cultures
[3] = system: SIV; type: cell-based; details: INA-treated SIV; FIG. 5
[4] = system: HIV; type: cell-based; details: cells exposed to INA-treated HIV; FIG. 6
[5] = system: HIV; type: binding; details: compared with non-treated virus; p24 ELISA; FIG. 7
[6] = system: tumor cells; type: cell-based
[7] = system: EBOV-GFP; type: cell-based, Zaire Ebola virus
[8] = system: Zaire EBOV; type: cell-based, Zaire Ebola virus
[9] = system: influenza virus strain H3N2 (X-31); type: cell-based
[10] = system: neuraminidase; type: biochemical, influenza virus H3N2
[11] = system: influenza virus; type: cell-based
[12] = system: influenza HA; type: cell-based, influenza virus; details: pH 5.0
[13] = system: HeLa cell membrane; type: cell-based; details: HeLa cells, INA 20 or 100 μM + UV; FIG. 17

Compound: [N-]=[N+]=Nc1cccc2c(I)cccc12 [INA, 1,5-iodonaphthyl azide]
- infectivity blocked ([1]; 200 μM INA, SIV (P-28) and HIV (P-24) expression): 100%
- production of the viral protein p28 ([1]; 200 μM INA, up to 11 days after INA treatment, FIG. 4): no detectable production
- 1/TCID50/ml ([1]; INA-treated SIV Mne, Reed and Muench, day 21): 0
- Culture Result Pos ([1]; INA-treated SIV, 1/dil 10^1, number of cultures productively infected, day 21): 0
- Culture Result Neg ([1]; INA-treated SIV, 1/dil 10^1, number of cultures uninfected, day 21): 0
- viral infectivity of SIV ([1]; as little as 50 μM INA, FIG. 4): reduced to essentially zero
- Avg. Capsid Protein conc. Day 7 ([2]; 1/dil 10^1): 9,201 pg/ml
- Avg. Capsid Protein conc. Day 14 ([2]; 1/dil 10^1): 0 pg/mL
- Avg. Capsid Protein conc. Day 21 ([2]; 1/dil 10^1): 0 pg/mL
- Culture Result Neg ([2]; 1/dil 10^1, day 21): 4
- Culture Result Pos ([2]; 1/dil 10^1, day 21): 0
- Avg. Capsid Protein conc. Day 7 ([2]; 1/dil 10^2): 0 pg/mL
- Avg. Capsid Protein conc. Day 14 ([2]; 1/dil 10^2): 0 pg/mL
- Avg. Capsid Protein conc. Day 21 ([2]; 1/dil 10^2): 0 pg/mL
- Culture Result Neg ([2]; 1/dil 10^2, day 21): 4
- Culture Result Pos ([2]; 1/dil 10^2, day 21): 0
- Avg. Capsid Protein conc. Day 7 ([2]; 1/dil 10^3): 0 pg/mL
- Avg. Capsid Protein conc. Day 14 ([2]; 1/dil 10^3): 0 pg/mL
- Avg. Capsid Protein conc. Day 21 ([2]; 1/dil 10^3): 0 pg/mL
- Culture Result Neg ([2]; 1/dil 10^3, day 21): 4
- Culture Result Pos ([2]; 1/dil 10^3, day 21): 0
- Avg. Capsid Protein conc. Day 7 ([2]; 1/dil 10^4): 0 pg/mL
- Avg. Capsid Protein conc. Day 14 ([2]; 1/dil 10^4): 0 pg/mL
- Avg. Capsid Protein conc. Day 21 ([2]; 1/dil 10^4): 0 pg/mL
- Culture Result Neg ([2]; 1/dil 10^4, day 21): 4
- Culture Result Pos ([2]; 1/dil 10^4, day 21): 0
- Avg. Capsid Protein conc. Day 7 ([2]; 1/dil 10^5): 0 pg/mL
- Avg. Capsid Protein conc. Day 14 ([2]; 1/dil 10^5): 0 pg/mL
- Avg. Capsid Protein conc. Day 21 ([2]; 1/dil 10^5): 0 pg/mL
- Culture Result Neg ([2]; 1/dil 10^5, day 21): 4
- Culture Result Pos ([2]; 1/dil 10^5, day 21): 0
- Avg. Capsid Protein conc. Day 7 ([2]; 1/dil 10^6): 0 pg/mL
- Avg. Capsid Protein conc. Day 14 ([2]; 1/dil 10^6): 0 pg/mL
- Avg. Capsid Protein conc. Day 21 ([2]; 1/dil 10^6): 0 pg/mL
- Culture Result Neg ([2]; 1/dil 10^6, day 21): 4
- Culture Result Pos ([2]; 1/dil 10^6, day 21): 0
- 1/TCID50/ml ([2]; Reed and Muench, day 21): 0
- fusion of SIV with the target cell at the plasma membrane level [3]: blocked fusion of SIV with the target cell
- luciferase expression in JC53BL cells [4]: substantially no luciferase expression is detected
- binding of INA-treated HIV to neutralizing antibodies 2G12, B12 and 4E10 [5]: interacts substantially the same as the non-treated virus
- ability of tumor cells to divide and form colonies [6]: blocked their ability to divide and form colonies
- concentration sufficient to inactivate EBOV completely [7]: 100 to 200 µM
- infectivity of EBOV-GFP ([7]; 24-96 h): complete loss of infectivity
- virus growth (genome copies in culture supernatant) [8]: did not show any growth
- infectivity of the influenza virus [9]: reduced the infectivity of the influenza virus to zero
- catalytic activity of the viral envelope enzyme neuraminidase [10]: not affected
- pH dependent mixing of lipids from the viral envelope with lipids of the target cell (R-18 dequenching) [11]: not affected
- redistribution of viral envelope proteins into the cell membrane (125INA incorporation into HA) [12]: almost no detectable signal
- mobile fraction of the lipid (DiO) [13]: not affected
- protein mobile fraction (CD4-GFP) [13]: reduced to background level
